Data on 22 compounds can be found in patent publication US11298363B2, “Triazolobenzazepines as vasopressin V1a receptor antagonists” (RICHTER GEDEON NYRT., priority 2017, dated 2022).

Assay [1] concerns the target T1, human vasopressin V1a receptor (Homo sapiens, UniProt P37288). As to the kind of experiment: Human vasopressin V1a receptor binding assay. Particulars: for Ki: 1321N1 cell membranes, [3H]vasopressin, read-out: Ki (nM) on hV1a cell line. As to the method:
Human Vasopressin V1a Receptor Binding Assay
Cells were suspended in preparative buffer (50 mM Tris, 1 mM EDTA, 0.1 mM PMSF) and homogenized with glass homogenizing potter. To separate the raw membrane fraction two consecutive centrifugation procedures (40,000 g for 20 minutes at 4° C.) were executed, then the membrane was taken into the preparatory buffer during a final washing step, it was divided into aliquots which were stored at −80° C. until the time of measurement.
To determine the final affinity value, the results of at least two independent experiments were taken into account.
Non-specific binding values were determined in the presence of unlabeled 1.2×10^−6 M (Arg^8)-vasopressin. Samples were incubated in a total volume of 0.33 ml for 60 minutes at 27° C. Membrane-bound and free ligands were separated by filtration through a 0.5% polyethyleneimine-impregnated UniFilter® GF/B™. After drying the filter plates, 40 μl Microscint-20 (Packard) scintillation cocktail was added to the samples. Finally, radioactivity was measured using MicroBeta^2 Microplate Counter (Perkin Elmer).
During fitting, the asymptotes are not fixed. The K values (inhibition constant) are given with Cheng-Prusoff equation Ki=IC50/[1+(L/KD)] wherein [L] is the radioligand concentration used in the experiment and [KD] is the affinity of the radioactively labelled ligand for the given receptor. The KD is determined beforehand using the Scatchard curve.

Assay [2] deals with T1, human vasopressin V1a receptor. As to the kind of experiment: Functional assay on human vasopressin V1a receptor expressing cell line (intracellular Ca2+ fluorescence). It is filed as cell-based. Particulars: 1321N1 cells, (Arg8)-vasopressin at EC80; read-out: IC50 (nM) on hV1a cell line. As to the method:
Functional Assay to Test Compounds on Human Vasopressin V1a Receptor Expressing Cell Line
The ordinary secondary messenger pathway of the measured GPCR receptor was used, the endogenous Gq-associated system.
Using 30,000 cells/plate, compounds were measured on 96-well plates. The buffer composition of the measurements was the following (expressed in mM): 140 NaCl, 5 KCl, 2 CaCl2), 2 MgCl2, 10 glucose, 10 HEPES (4-(2-hydroxyethyl)-1-piperazine-ethanesulfonic acid), 2 probenecid, pH=7.4. FLIPR Calcium 5 kit (Molecular Devices) was used as fluorescent dye, the medium was not removed prior to filling with the dye and the cells were not washed out either before or after. The incubation was performed at room temperature, the final concentration of DMSO was 1%. The materials to be measured were administered in 15 to 20 minutes pretreatment, at least two parallels of each compound in each concentration was measured.
Fluorescence signal was used to determine the intracellular Ca^2+ level, the reader was FlexStation II96. […] The fluorescence signal was logged in every 1.4 seconds for 1 minute. The reference compounds used were the following: (Arg^8)-vasopressin as agonist at concentration of EC80, determined for each plate, and relcovaptan as antagonist at 1 μM. The % of inhibition at each concentration and the IC50 value of the compounds were determined where a concentration line was also measured.
The total AVP concentration-response curve was recorded on each plate. The effect of compounds measured was expressed by percentage of relative inhibition compared to control response. […] The average IC50 values were calculated from at least three independent measurements in all cases.

Each structure is given as a SMILES string. Counter-ions that a name gives are not always drawn.

T1 sequence (P37288 whole entry): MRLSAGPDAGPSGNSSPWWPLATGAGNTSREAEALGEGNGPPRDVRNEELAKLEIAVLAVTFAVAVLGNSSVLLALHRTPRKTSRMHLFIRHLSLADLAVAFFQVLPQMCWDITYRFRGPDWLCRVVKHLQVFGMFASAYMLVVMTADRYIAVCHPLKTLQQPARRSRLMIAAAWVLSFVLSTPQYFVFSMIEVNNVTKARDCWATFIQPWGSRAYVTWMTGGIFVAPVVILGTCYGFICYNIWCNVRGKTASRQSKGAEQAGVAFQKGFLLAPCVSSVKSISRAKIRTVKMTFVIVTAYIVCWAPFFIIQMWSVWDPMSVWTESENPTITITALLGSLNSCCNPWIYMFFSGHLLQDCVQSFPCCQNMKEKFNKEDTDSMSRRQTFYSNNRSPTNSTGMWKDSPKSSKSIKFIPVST

The Ki is the dissociation constant of the complex between target and ligand, obtained from inhibition or displacement. In general, IC50 refers to the point on the concentration scale where inhibition reaches its midpoint. As for `CC(=O)N[C@@H]1Cc2cc(Cl)ccc2-n2c(nnc2[C@H]2CC[C@H](Oc3ccccn3)CC2)C1` [Example 168, N-{(5R)-8-chloro-1-[trans-4-(pyridin-2-yloxy)cyclohexyl]-5,6-dihydro-4H-[1,2,4]triazolo[4,3-a][1]benzazepin-5-yl}acetamide], in assay [1], the Ki came to 0.4 nM. Also, the IC50 in assay [2] turned out to be 0.8 nM.
With `COC1Cc2cc(Cl)ccc2-n2c(nnc2[C@H]2CC[C@H](N3CCOCC3)CC2)C1` (stereo partly drawn) [Example 130, 8-chloro-5-methoxy-1-[trans-4-(morpholin-4-yl)cyclohexyl]-5,6-dihydro-4H-[1,2,4]triazolo[4,3-a][1]benzazepine], the Ki in assay [1] is 2.4 nM. Also, the IC50 in assay [2] worked out at 6.1 nM.
With `CC(=O)N[C@H]1Cc2cc(Cl)ccc2-n2c(nnc2[C@H]2CC[C@H](Oc3ccccn3)CC2)C1` [Example 68, (5S)—N-{8-chloro-1[trans-4-(pyridin-2-yloxy)cyclohexyl]-5,6-dihydro-4H-[1,2,4]triazolo[4,3-a][1]benzazepin-5-yl}acetamide], the Ki in assay [1] came to 9.4 nM. In assay [2], the IC50 was determined as 33 nM.
Regarding `CN(C)C1Cc2cc(Cl)ccc2-n2c(nnc2[C@H]2CC[C@H](Oc3ccccn3)CC2)C1` (stereo partly drawn) [Example 22, 8-chloro-N,N-dimethyl-1-[trans-4-(pyridin-2-yloxy)cyclohexyl]-5,6-dihydro-4H-[1,2,4]triazolo[4,3-a][1]benzazepine-5-amine], in assay [1], the Ki was 0.5 nM. Also, the IC50 in assay [2] was found to be 2.8 nM.
Regarding `Clc1ccc2c(c1)CC1(Cc3nnc([C@@H]4CCN(Cc5cccnc5)C4)n3-2)OCCO1` [Example 250, 8′-chloro-1′-[(3R)-1-(pyridin-3-ylmethyl)pyrrolidin-3-yl]-4′H, 6′H-spiro[1,3-dioxolane-2,5′-[1,2,4]triazolo[4,3-a][1]benzazepine]], in assay [1], the Ki was 2.9 nM. Also, the IC50 in assay [2] was 27 nM.
Regarding `O=C(N[C@H]1Cc2cc(Cl)ccc2-n2c(nnc2[C@H]2CC[C@H](Oc3ccccn3)CC2)C1)C(F)(F)F` [Example 201], in assay [1], the Ki is 3.9 nM. In addition, the IC50 in assay [2] worked out at 19 nM.
As for `CC(C)(C)C(=O)N[C@H]1Cc2cc(Cl)ccc2-n2c(nnc2[C@H]2CC[C@H](Oc3ccccn3)CC2)C1` [Example 118], in assay [1], the Ki was determined as 66 nM. For the same compound, in assay [2], the IC50 came to 251 nM.
`O=C([C@H]1CC[C@H](c2nnc3n2-c2ccc(Br)cc2CC(O)C3)CC1)N1CCCCC1` (stereo partly drawn) [Example 92, [Trans-4-(8-bromo-5-hydroxy-5,6-dihydro-4H-[1,2,4]triazolo[4,3-a][1]benzazepin-1-yl)cyclohexyl](piperidin-1-yl)methanone]: the Ki in assay [1] was determined as 1.9 nM. Also, the IC50 in assay [2] worked out at 16 nM.
`CCC(C)N[C@H]1Cc2cc(Cl)ccc2-n2c(nnc2[C@H]2CC[C@H](Oc3ccccn3)CC2)C1` (stereo partly drawn) [Example 128]: the Ki in assay [1] turned out to be 2 nM. Also, in assay [2], the IC50 came out at 14 nM.
For `CC1(C(=O)N[C@@H]2Cc3cc(Cl)ccc3-n3c(nnc3[C@H]3CC[C@H](Oc4ccccn4)CC3)C2)COC1` [Example 226, N-{(5R)-8-chloro-1-[trans-4-(pyridin-2-yloxy)cyclohexyl]-5,6-dihydro-4H-[1,2,4]triazolo[4,3-a][1]benzazepin-5-yl}-3-methyloxetan-3-carboxamide], the Ki in assay [1] is 0.5 nM. The IC50 in assay [2] is 4.2 nM.
As to `Clc1ccc2c(c1)CC1(Cc3nnc([C@H]4CC[C@H](N5CCOCC5)CC4)n3-2)OCCO1` [Example 162, 8′-chloro-1′-[trans-4-(morpholin-4-yl)cyclohexyl]-4′H,6′H-spiro[1,3-dioxolane-2,5′-[1,2,4]triazolo[4,3-a][1]benzazepine]hydrochloride], the Ki in assay [1] was determined as 0.5 nM. The IC50 in assay [2] was 2.9 nM.
Regarding `CN(C)[C@H]1CC[C@H](c2nnc3n2-c2ccc(Cl)cc2CC2(C3)OCCO2)CC1` [Example 190, Trans-4-(8′-chloro-4′H,6′H-spiro[1,3-dioxolane-2,5′-[1,2,4]triazolo[4,3-a][1]benzazepin]-1′-yl)-N,N-dimethylcyclohexanamine], in assay [1], the Ki was 5.3 nM. In assay [2], the IC50 worked out at 105 nM.
As to `CCO[C@]1(C)CC[C@@H](c2nnc3n2-c2ccc(Cl)cc2CC2(C3)OCCO2)CC1` [Example 237, 8′-chloro-1′-(trans-4-ethoxy-4-methylcyclohexyl)-4′H,6′H-spiro[1,3-dioxolane-2,5-[1,2,4]triazolo[4,3-a][1]benzazepine]], the Ki in assay [1] is 0.2 nM. Also, in assay [2], the IC50 was 1.5 nM.
The corresponding values for `CC(C)NC1Cc2cc(Cl)ccc2-n2c(nnc2[C@H]2CC[C@H](N3CCOCC3)CC2)C1` (stereo partly drawn) [Example 114] are 26.5 nM and 205 nM.
As for `NC1Cc2ccccc2-n2c(nnc2[C@H]2CC[C@H](Oc3ccccn3)CC2)C1` (stereo partly drawn) [Example 144, 1-[trans-4-(pyridin-2-yloxy)cyclohexyl]-5,6-dihydro-4H-[1,2,4]triazolo[4,3-a][1]benzazepin-5-amine], the Ki in assay [1] came out at 34 nM. In addition, the IC50 in assay [2] was determined as 168 nM.
On to `COC1(C)CCC(c2nnc3n2-c2ccc(Cl)cc2CC(NC(C)C)C3)CC1` (mixture of isomers) [Example 203, 8-chloro-1-(4-methoxy-4-methylcyclohexyl)-N-(propan-2-yl)-5,6-dihydro-4H-[1,2,4]triazolo[4,3-a][1]benzazepin-5-amine], for which the Ki in assay [1] turned out to be 10.1 nM. Also, the IC50 in assay [2] amounted to 210 nM.
The corresponding values for `Clc1ccc2c(c1)CC1(Cc3nnc(C4CCN([C@@H]5CCOC5)CC4)n3-2)OCCO1` [Example 188, 8′-chloro-1′-{1-[(3R)tetrahydrofuran-3-yl]piperidin-4-yl}-4′H,6′H-spiro[1,3-dioxolane-2,5′-[1,2,4]triazolo[4,3-a][1]benzazepine]] are 0.5 nM and 5.3 nM.
Regarding `NC1Cc2cc(Br)ccc2-n2c(nnc2[C@H]2CC[C@H](C(F)(F)F)CC2)C1` (stereo partly drawn) [Example 45, 8-bromo-1-[trans-4-(trifluoromethyl)cyclohexyl]-5,6-dihydro-4H-[1,2,4]triazolo[4,3-a][1]benzazepine-5-amine], the Ki in assay [1] is 38 nM. Besides, the IC50 in assay [2] is 870 nM.
`OC1Cc2cc(Cl)ccc2-n2c(nnc2N2CCC(Oc3ccccn3)CC2)C1` (stereo not drawn) [Example 181, 8-chloro-1-[4-(pyridin-2-yloxy)piperidin-1-yl]-5,6-dihydro-4H-[1,2,4]triazolo[4,3-a][1]benzazepin-5-ol]: the Ki in assay [1] is 0.5 nM. Also, in assay [2], the IC50 was determined as 1.8 nM.
Take `CN[C@H]1Cc2cc(Cl)ccc2-n2c(nnc2[C@H]2CC[C@H](Oc3ccccn3)CC2)C1` [Example 78, (5S)-8-chloro-N-methyl-1-[trans-4-(pyridin-2-yloxy)cyclohexyl]-5,6-dihydro-4H-[1,2,4]triazolo[4,3-a][1]benzazepine-5-amine]: the inhibition constant Ki in assay [1] is 1.7 nM. Moreover, in assay [2], the IC50 amounted to 12 nM.
`CC(C)NC1Cc2cc(Cl)ccc2-n2c(nnc2C2CC(F)(F)C2)C1` (stereo not drawn) [Example 41, 8-chloro-1-(3,3-difluorocyclobutyl)-N-(propan-2-yl)-5,6-dihydro-4H-[1,2,4]triazolo[4,3-a][1]benzazepine-5-amine]: the Ki in assay [1] was 600 nM.
`CC(C)NC1Cc2cc(Cl)ccc2-n2c(nnc2C2CCC(F)(F)CC2)C1` (stereo not drawn) [Example 42, 8-chloro-1-(4,4-difluorocyclohexyl)-N-(propan-2-yl)-5,6-dihydro-4H-[1,2,4]triazolo[4,3-a][1]benzazepine-5-amine]: in assay [1] (at 1 μM), the “% at 1 μM, printed in the column Ki (nM) on hV1a cell line” value was 42% at 1 μM.
